The text below walks through data of PubChem BioAssay (NCI).

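Values below derive from 48-hour exposures of cells grown in 96-well plates, with endpoints linearly interpolated between the two concentrations bracketing the appropriate inhibition level. TGI is the concentration that stops growth completely.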

Among the test systems are KM12 colon; SK-MEL-28 melanoma; OVCAR-3 ovarian; HCT-116 colon; A498 renal; OVCAR-4 ovarian; UACC-62 melanoma; NCI-H23 lung; OVCAR-8 ovarian; SNB-19 CNS.
What all share (test): inhibition of tumour cell growth, NCI panel, 48 h

As to `CCC1CN2CCc3c([nH]c4ccccc34)[C@@](C(=O)OC)(c3cc4c(cc3OC)N(C)C3C(O)(C(=O)OC)C(C(=O)OC)C5(CC)C=CCN6CCC43C65)C[C@@H](C2)[C@@H]1C(C)(C)C` (stereo not given in full), the TGI in the test on KM12 colon was over 5.72 µM; in the test with SK-MEL-28 melanoma, over 10 µM; in the test with OVCAR-3 ovarian, over 2.85 µM; with HCT-116 colon, 2.85 µM; with A498 renal it was 1.12 µM; in the test with OVCAR-4 ovarian, over 10 µM. Moreover, the TGI in the test on UACC-62 melanoma is over 10 µM; in the test with NCI-H23 lung, over 6.31 µM; in the test on OVCAR-8 ovarian, over 3.79 µM; in the test with SNB-19 CNS it was over 2.53 µM.
In the case of `Cc1cc2occ(S(=O)(=O)NC(=O)Nc3ccc(Cl)cc3)c(=O)c2c(=O)o1`, the TGI in the test on KM12 colon, in the test on SK-MEL-28 melanoma, in the test on OVCAR-3 ovarian, with HCT-116 colon, with A498 renal and with OVCAR-4 ovarian was over 100 µM each time. Further, the TGI with UACC-62 melanoma, in the test with NCI-H23 lung, in the test with OVCAR-8 ovarian and in the test with SNB-19 CNS was over 100 µM throughout.
In the case of `CC(CC=O)Nc1nn2c(=O)c3ccccc3nc2s1` (stereo not given), the TGI in the test on KM12 colon, with SK-MEL-28 melanoma, in the test on OVCAR-3 ovarian, in the test on HCT-116 colon, with A498 renal and in the test with OVCAR-4 ovarian was over 100 µM in each case. The TGI in the test with UACC-62 melanoma, with NCI-H23 lung, in the test with OVCAR-8 ovarian and in the test on SNB-19 CNS was over 100 µM each time.
Consider `O=C1C2CC[C@@H]3C(=O)C(Cl)(Cl)[C@@H]3CCC2C1(Cl)Cl` (stereo not given in full), for which the TGI in the test with KM12 colon, in the test on SK-MEL-28 melanoma, with OVCAR-3 ovarian, in the test on HCT-116 colon, with A498 renal and in the test on OVCAR-4 ovarian was over 100 µM each time. The TGI in the test on UACC-62 melanoma, in the test on NCI-H23 lung, in the test on OVCAR-8 ovarian and in the test with SNB-19 CNS was over 100 µM throughout.
`CC(NNC(=O)c1ccncc1)c1ccc(Cl)cc1Cl` (stereo not given): the TGI in the test on KM12 colon, in the test on SK-MEL-28 melanoma, in the test on OVCAR-3 ovarian, in the test on HCT-116 colon, in the test with A498 renal and in the test on OVCAR-4 ovarian was over 100 µM in each case. Moreover, the TGI in the test with UACC-62 melanoma, in the test on NCI-H23 lung, in the test on OVCAR-8 ovarian and with SNB-19 CNS was over 100 µM throughout.
As for `O=C1C=C/C(=C/[C@H]2SSC=C[C@]23C=CC(=O)C3)C1`, the TGI is 46.6 µM in the test on KM12 colon; 42 µM in the test with SK-MEL-28 melanoma; 85.6 µM in the test on OVCAR-3 ovarian; 22 µM with HCT-116 colon; 38.3 µM in the test with A498 renal; over 74.2 µM in the test with OVCAR-4 ovarian. Moreover, the TGI is 58.7 µM in the test with UACC-62 melanoma, 44.1 µM with NCI-H23 lung, over 81 µM in the test on OVCAR-8 ovarian and over 100 µM in the test on SNB-19 CNS.
Turning to `C/C(Nc1ccc(Cl)cc1)=C1/CCOC1=O`, the TGI in the test with KM12 colon, in the test with SK-MEL-28 melanoma, in the test on OVCAR-3 ovarian, in the test on HCT-116 colon, with A498 renal and in the test with OVCAR-4 ovarian was over 100 µM in each case. The TGI with UACC-62 melanoma, in the test with NCI-H23 lung, with OVCAR-8 ovarian and in the test with SNB-19 CNS was over 100 µM throughout.
As for `Cc1cc(C)nc(NS(=O)(=O)c2ccc(Nc3c4ccccc4nc4ccc(C(=O)Nc5ccc(S(=O)(=O)N=C(N)N)cc5)cc34)cc2)n1`, the TGI with KM12 colon, in the test on SK-MEL-28 melanoma, with OVCAR-3 ovarian, in the test with HCT-116 colon, with A498 renal and with OVCAR-4 ovarian was over 100 µM in each case. Further, the TGI in the test on UACC-62 melanoma, in the test with NCI-H23 lung, with OVCAR-8 ovarian and in the test on SNB-19 CNS was over 100 µM throughout.
As to `COc1ccc(/C=N/NC(=S)Nc2cc(C)ccc2OC)cc1`, the TGI in the test with KM12 colon, in the test with SK-MEL-28 melanoma, in the test on OVCAR-3 ovarian, in the test on HCT-116 colon, in the test on A498 renal and in the test with OVCAR-4 ovarian was over 100 µM each time. Also, the TGI in the test with UACC-62 melanoma was over 100 µM; with NCI-H23 lung it was 73.8 µM; in the test on OVCAR-8 ovarian, over 100 µM; in the test on SNB-19 CNS, over 100 µM.
Turning to `COc1ccc2c(c1)CC[C@@H]1C2CC[C@]2(C)C(=C=CP(=O)(O)O)CCC12` (stereo not given in full), the TGI with KM12 colon, in the test with SK-MEL-28 melanoma, in the test with OVCAR-3 ovarian, in the test on HCT-116 colon, with A498 renal and in the test with OVCAR-4 ovarian was over 100 µM throughout. Besides, the TGI in the test with UACC-62 melanoma, in the test on NCI-H23 lung, with OVCAR-8 ovarian and in the test with SNB-19 CNS was over 100 µM each time.
Take `O=C(O)CCC1NC(/C(=C/c2ccccc2O)NC(=O)c2ccccc2)OC1=O` (stereo not given): the TGI in the test on KM12 colon, in the test on SK-MEL-28 melanoma, in the test on OVCAR-3 ovarian, in the test on HCT-116 colon, in the test with A498 renal and in the test on OVCAR-4 ovarian was over 100 µM in each case. Further, the TGI in the test on UACC-62 melanoma, in the test on NCI-H23 lung, in the test with OVCAR-8 ovarian and in the test on SNB-19 CNS was over 100 µM in each case.
In the case of `C#CCOC(=O)C(=[N+]=[N-])C(=O)CC(C)C`, the TGI in the test with KM12 colon, in the test on SK-MEL-28 melanoma, with OVCAR-3 ovarian, in the test on HCT-116 colon, with A498 renal and in the test with OVCAR-4 ovarian was over 10 µM each time. Also, the TGI in the test with UACC-62 melanoma, with NCI-H23 lung, in the test on OVCAR-8 ovarian and in the test on SNB-19 CNS was over 10 µM each time.
`COc1cccc(CCCNC(=O)Cc2ccccc2CO)c1`: the TGI with KM12 colon, in the test with SK-MEL-28 melanoma, with OVCAR-3 ovarian, with HCT-116 colon, in the test on A498 renal and with OVCAR-4 ovarian was over 100 µM in each case. The TGI in the test on UACC-62 melanoma, with NCI-H23 lung, in the test with OVCAR-8 ovarian and in the test on SNB-19 CNS was over 100 µM in each case.
`COc1ccc(N=Nc2c(N)nn3c(SC)c(C#N)c(N)nc23)cc1`: the TGI was found to be 30.2 µM with KM12 colon; 18.8 µM with SK-MEL-28 melanoma; 7.1 µM with OVCAR-3 ovarian; 28.4 µM in the test on HCT-116 colon; 28.5 µM in the test with A498 renal; 35 µM in the test with OVCAR-4 ovarian. Moreover, the TGI in the test on UACC-62 melanoma was determined as 20.4 µM; in the test with NCI-H23 lung, 21.1 µM; with OVCAR-8 ovarian, 11.7 µM; with SNB-19 CNS it was 37.6 µM.
Take `CN(C)C(=O)Oc1ccc(C(=S)Nc2ccccc2)cc1`: the TGI with KM12 colon, in the test with SK-MEL-28 melanoma, in the test on OVCAR-3 ovarian, in the test on HCT-116 colon, in the test with A498 renal and with OVCAR-4 ovarian was over 100 µM in each case. Further, the TGI in the test on UACC-62 melanoma was over 100 µM; in the test with NCI-H23 lung, over 100 µM; with OVCAR-8 ovarian, 64 µM; in the test with SNB-19 CNS, over 100 µM.
Take `COC(=O)C1CCC(=O)N1/C(C)=N/NC(=O)Nc1ccc(Cl)c(Cl)c1` (stereo not given): the TGI with KM12 colon, in the test with SK-MEL-28 melanoma, with OVCAR-3 ovarian, with HCT-116 colon, in the test on A498 renal and in the test on OVCAR-4 ovarian was over 100 µM in each case. The TGI in the test with UACC-62 melanoma, with NCI-H23 lung, in the test with OVCAR-8 ovarian and with SNB-19 CNS was over 100 µM in each case.
For the molecule `CSc1nc(C)c2c(n1)N(c1ccc(Cl)cc1)CC2`, the TGI in the test with KM12 colon, in the test on SK-MEL-28 melanoma, in the test on OVCAR-3 ovarian, in the test on HCT-116 colon, in the test with A498 renal and in the test on OVCAR-4 ovarian was over 100 µM throughout. For the same molecule, the TGI in the test on UACC-62 melanoma, in the test on NCI-H23 lung, in the test with OVCAR-8 ovarian and with SNB-19 CNS was over 100 µM throughout.
In the case of `CCOC(=O)c1cn(CC)c2ccc3c(c2c1=O)S(=O)(=O)C=C3`, the TGI in the test with KM12 colon, in the test with SK-MEL-28 melanoma, in the test on OVCAR-3 ovarian, in the test on HCT-116 colon, in the test with A498 renal and in the test with OVCAR-4 ovarian was over 100 µM throughout. For the same molecule, the TGI in the test on UACC-62 melanoma, in the test on NCI-H23 lung, in the test with OVCAR-8 ovarian and with SNB-19 CNS was over 100 µM each time.
With `CCOC(=O)c1cc2c3c(cc(OC)c2[nH]1)N(C(=O)OCC)CC3`, the TGI in the test with KM12 colon, in the test with SK-MEL-28 melanoma, in the test on OVCAR-3 ovarian, in the test on HCT-116 colon, in the test on A498 renal and in the test on OVCAR-4 ovarian was over 100 µM each time. Moreover, the TGI with UACC-62 melanoma, in the test on NCI-H23 lung, in the test on OVCAR-8 ovarian and with SNB-19 CNS was over 100 µM each time.
As for `COC(=O)C(=O)C(C(=O)C(=O)Nc1ccc(C)c(C)c1)c1nc2ccc([N+](=O)[O-])cc2[nH]c1=O` (stereo not given), the TGI in the test on KM12 colon, with SK-MEL-28 melanoma, with OVCAR-3 ovarian, in the test on HCT-116 colon, with A498 renal and with OVCAR-4 ovarian was over 100 µM throughout. Besides, the TGI in the test with UACC-62 melanoma, with NCI-H23 lung, in the test on OVCAR-8 ovarian and in the test on SNB-19 CNS was over 100 µM throughout.
As for `COC(=O)CC1CC2(C(=O)OC)c3[nH]c4ccccc4c3CCN2C1=O` (stereo not given), the TGI with KM12 colon, with SK-MEL-28 melanoma, with OVCAR-3 ovarian, in the test on HCT-116 colon, in the test with A498 renal and with OVCAR-4 ovarian was over 100 µM in each case. The TGI in the test with UACC-62 melanoma, in the test on NCI-H23 lung, in the test with OVCAR-8 ovarian and with SNB-19 CNS was over 100 µM each time.
Turning to `Cc1cc2c(cc1Cl)Sc1n[nH]c(=O)n1S2(=O)=O`, the TGI in the test with KM12 colon is over 100 µM; in the test with SK-MEL-28 melanoma, over 100 µM; in the test on OVCAR-3 ovarian it was over 100 µM; with HCT-116 colon it was over 100 µM; in the test on A498 renal it was 90.8 µM; with OVCAR-4 ovarian, over 100 µM. Besides, the TGI with UACC-62 melanoma, with NCI-H23 lung, in the test on OVCAR-8 ovarian and with SNB-19 CNS was over 100 µM each time.
Consider `c1cc2c(cc1[C@@H]1OC[C@@H]3[C@H]1CO[C@H]3c1ccc3c(c1)OCO3)OCO2`, for which the TGI in the test with KM12 colon is 71 µM; in the test on SK-MEL-28 melanoma, over 100 µM; in the test on OVCAR-3 ovarian it was over 100 µM; in the test with HCT-116 colon, over 100 µM; in the test on A498 renal, over 100 µM; in the test with OVCAR-4 ovarian it was over 100 µM. In addition, the TGI in the test with UACC-62 melanoma, in the test on NCI-H23 lung, in the test with OVCAR-8 ovarian and with SNB-19 CNS was over 100 µM each time.
